Results reported in patent US11149047B2, “Aryl imidazoles for treatment of cancer” (Aptose Biosciences Inc., priority 2017, dated 2021).
Marks after values point to notes of the source that are not given here.

Key:
Raji cells = test: Cytotoxicity study, MTS cell proliferation assay, 5 days; format: cell-based, human; settings: Homo sapiens, Raji
Experimental: (§1) The human Burkitt lymphoma cell line Raji was obtained from the American Type Tissue Culture Collection and cultured in RPMI 1640 medium (ATCC) supplemented with 10% fetal bovine serum (ATCC,) at 37° C., 5% CO2. The COMPOUND I-resistant Raji (Raji/COMPOUND IR) cell line was generated by exposure to progressively higher concentrations of COMPOUND I over a period of 6 months. CAOV3 cells were obtained from ATCC and cultured in complete DMEM supplemented with 10% fetal bovine serum. MCF7 vector controlled and BRCA1 shRNA subclones were obtained from Dr. Simon Powell (Memorial Sloan-Kettering Cancer Center) and cultured in EMBM with 10% fetal bovine serum. MCF10A and hTERT-IMEC clones were obtained from Dr. Ben Ho Park (Johns Hopkins University). HCT116 BRCA2^+/+ cells and BRCA2^−/− cells were obtained from Dr. Samuel Aparicio (British Columbia Cancer Research Centre). PEO1 and PEO4 cells were obtained from Dr. Sharon Cantor (University of Massachusetts) and these cell lines were cultured under the same conditions as previously published. Sakai et al., Functional restoration of BRCA2 protein by secondary BRCA2 mutations in BRCA2-mutated ovarian carcinoma, Cancer Res. 2009; 69 (16):6381-6; Konishi et al., Mutation of a single allele of the cancer susceptibility gene BRCA1 leads to genomic instability in human breast epithelial cells, Proc. Natl. Acad. Sci. 2011; 108 (43):17773-8; Xu et al., CX-5461 is a DNA G-quadruplex stabilizer with selective lethality in BRCA1/2 deficient tumours, Nature Communications 2017; 8:14432, all of which are hereby incorporated by reference.
(§2) Cells were plated and treated with the indicated drugs in 96-well plates for 5 days. Cell viability was measured using CellTiter 96 AQueous one solution (MTS) cell proliferation assay purchased from Promega, and IC50 values were calculated using GraphPad Prism 6 Software.

Raji/COMPOUND IR cells = test: as above; format: cell-based, human; settings: for RR (relative resistance): Raji/COMPOUND IR vs Raji; for IC50: Homo sapiens, Raji
Experimental: as §1, §2

[1] = test system: γH2AX foci in CAOV3 cells; test: Immunofluorescence staining of γH2AX foci; format: cell-based, human; settings: CAOV3, time course, FIG. 2C
Experimental: Cells were harvested and washed with PBS twice, fixed in Z-fix solution (buffered zinc formalin fixatives, Anatech, Inc, Creek, Mich.) and permeabilized and blocked with 0.3% Triton X-100 in PBS containing 5% bovine serum albumin. The cells were then incubated with γ-H2AX antibody (1:250 dilution in 0.3% Triton X-100 in PBS containing 1% bovine serum albumin) overnight followed by three washes. Cells were incubated for 1 h with fluorescent-conjugated secondary antibodies (1:1000 dilution) followed by three washes. Slides were mounted with ProLong Gold antifade reagent with 4′,6-diamidino-2-phenylindole (DAPI) to stain cell nuclei (Molecular Probes). Fluorescence was viewed with Keyence Fluorescent Microscope using a 100× objective and quantitated with Image J software (the National Institutes of Health).
The structure of COMPOUND I is similar to drugs that bind to quadruplex structures in DNA which results in strand breaks; this led to the investigation of whether COMPOUND I caused damage to DNA. The parental Raji cells were treated with 0.5 μM COMPOUND I for increasing periods of time and induction of DNA damage was assessed by accumulation of the phosphorylated forms of ATM and γH2AX measured by Western blot analysis. […]

[2] = test system: MV4-11, EOL-1, and KG-1 AML cells; test: Flow cytometry for apoptosis (Annexin V / PI); format: cell-based; settings: all cell lines, FIG. 10A
Experimental: Cells were treated as described above. To determine apoptosis, cells were stained with FITC-Annexin V and propidium iodide (PI; BD Pharmingen, catalog #556570) and then analyzed on BD Accuri C6 flow cytometer. To measure DNA synthesis and phases of cell cycle, treated cells were stained with 5-ethynyl-2′-deoxyuridine (Edu) Alexa Fluor 488 (Thermo Fisher Scientific, catalog #C10425) and PI (PI/RNase A staining solution, BD Biosciences, catalog #550825). The dead cells were excluded from analysis by using Live/Dead Fixable Far Red Dead Cell Stain Kit (Thermo Fisher Scientific, catalog #L34973). Staining was performed as per the manufacturers' instructions.
To investigate the mechanism by which COMPOUND I causes cell death, MV4-11, EOL-1, and KG-1 AML cells were treated with or without COMPOUND I and subjected to apoptotic marker detection by flowcytometry and Western blotting. Cells were stained with PI and Annexin V to distinguish between live (Annexin V and PI negative), early apoptotic (Annexin V positive and PI negative), late apoptotic (Annexin V and PI positive), and dead (Annexin V negative and PI positive) cells. […] COMPOUND I induced accumulation of c-PARP1 in a concentration- and time dependent manner that paralleled apoptosis induction as measured by Annexin V/PI staining (FIGS. 10B-C; FIG. 17B). […]

[3] = test system: MYC mRNA stability in EOL-1 cells; test: RNA decay assay; format: cell-based; settings: 500 nmol/L 3 hours, then 1 μmol/L actinomycin D
Experimental: Cells were treated for 3 hours with vehicle DMSO or 500 nmol/L COMPOUND I followed by 1 μmol/L actinomycin D. Aliquots of cells were taken before and then every 10 minutes after actinomycin D addition for RNA extraction and cDNA synthesis as for qRT-PCR analysis. Levels of MYC and 28s rRNA were analyzed using specific primers (Table 8) and MYC RNA expression was normalized to 28 s rRNA [2^(28 s Ct value−MYC Ct value)].
Regulation of MYC expression is a complex process that involves MYC transcription, mRNA stability, and protein turnover. ChIP-qPCR analysis for H3K27ac, a well-established marker of active chromatin, was performed to assess transcriptional competency of the MYC gene promoter after treatment with COMPOUND I (FIG. 19D). […] To determine whether COMPOUND I affected MYC mRNA stability, an RNA decay assay was performed on EOL-1 cells.

## Cc1[nH]c2ccc(F)cc2c1-c1nc2c3cccnc3c3ncccc3c2[nH]1 [COMPOUND I, 2-(5-fluoro-2-methyl-1H-indol-3-yl)-1H-imidazo[4,5-f][1,10]phenanthroline]
Raji cells; 120 h, parental Raji cells, growth rate during 120 h exposure
  IC50: 91.9 ± 22.3 nM
Raji cells; COMPOUND I + 5 nM Ko143
  IC50: 98.3 ± 0.8 nM
Raji cells; COMPOUND I + 50 nM Ko143
  IC50: 103 ± 2.9 nM
Raji cells; COMPOUND I alone, mean ± SEM
  IC50: 105 nM
Raji/COMPOUND IR cells
  fold resistant to COMPOUND I (Raji/COMPOUND IR over sensitive Raji): 16.7±3.9 fold
Raji/COMPOUND IR cells; COMPOUND I + 5 nM Ko143
  RR (relative resistance): 10.9 ± 1.9^c
Raji/COMPOUND IR cells; COMPOUND I + 50 nM Ko143
  RR (relative resistance): 2.5 ± 0.7^a
Raji/COMPOUND IR cells; COMPOUND I alone
  RR (relative resistance): 16.7 ± 3.9^b
Raji/COMPOUND IR cells; COMPOUND I + 5 nM Ko143, Raji/COMPOUND IR
  IC50: 853 ± 44 nM
Raji/COMPOUND IR cells; COMPOUND I + 50 nM Ko143, Raji/COMPOUND IR
  IC50: 201 ± 20.7 nM
Raji/COMPOUND IR cells; COMPOUND I alone, Raji/COMPOUND IR, mean ± SEM
  IC50: 1390 ± 94 nM
Raji/COMPOUND IR cells; Raji/COMPOUND IR cells
  IC50: 1390 ± 98.5 nM
[1]
  number of γH2AX foci: increase in the number of foci was detectable at 1 h
[2]
  apoptotic cells at 24 hours: concentration-dependent increase in apoptotic cells
[3]
  MYC mRNA levels in pretreated cells versus vehicle: clear decrease in MYC mRNA levels
